According to US20120122965A1, “COMPOSITIONS FOR SKIN PROTECTION AND IMPROVEMENT OF SKIN DISEASES CONTAINING THE DIBENZO-P-DIOXINE DERIVATIVES” (priority 2007, published 2012):

How the values were obtained:
[1] = test system: B-16 cells (mouse melanoma, ATCC CRL 6323); assay: Inhibition of melanin synthesis; assay type: cell-based; details: 50 μg/ml, 3 days, vs solvent control; for inhibition at 50 µg/mL: Mus musculus, B16, 72 h, read-out: Inhibitory effect on melanin synthesis (%)
Method: Catechin, rasveratrol, isoflavone, kojic acid, ascorbic acid, and Moriradicis cortex extracts were used as positive controls.
The B-16 cells (mouse melanoma, ATCC CRL 6323) were maintained in the DMEM medium supplemented 4.5 g/E of glucose, 10% serum, and 1% antibiotic at 37° C. for 24 hours. After the cell was incubated with 0.05% trypsin containing 0.02% EDTA, the cell was plated and incubated for 48 hours. The cells were treated with 50 μg/ml of compositions 1 to 18, or positive controls and incubated at 37° C. for 3 days. The cells were then added with 1 me of lysis buffer (phosphate buffer solution, 0.02% EDTA, 0.05% trypsin) and centrifuged for 5 min After the cells were treated with 5% trichloro acetate (TCA), the farmed melanin was separated and dissolved in 1N NaOH. The absorbance was measured at 475 nm using spectrophotometer. Concentration of melanin was determined by the standard curve of synthetic melanin (SIGMA CO. USA). The cell treated with the same amount of solvent was used as a negative control. The inhibitory effects of each composition on melanin synthesis were determined by following Equation.
{1−(M/M0)}×100 [Equation]
M: amount of melanin of test group or positive controls
M0: amount of melanin of negative control

[2] = test system: elastase; assay: Inhibition of elastase; assay type: biochemical; details: 50 μg/ml, 10 nM elastase, 25° C., 10 min
Method: Catechin, rasveratrol, isoflavone, lactokine were used for positive controls. […] The cell treated with the same amount of solvent was used as a negative control. The inhibitory effects of each sample on elastase were determined by following Equation. The results are described in Table 3. {1−(E/E0)}×100 [Equation] E: The absorbance of test group or positive control E0: The absorbance of negative control

[3] = test system: rat basophilic leukemia cell (RBL-2H3); assay: Inhibition on histamine release (DNP-BSA stimulated); assay type: cell-based; details: 50 μg/ml, RBL-2H3 cells, vs negative control
Method: In order to assess the anti-inflammation and anti-allergic activities of the compositions in the present invention, the inhibitory effects of the compositions on histamine synthesis, which closely related with inflammation including allergy, were investigated. The inhibitory effects of the compositions on histamine synthesis were assessed using the rat basophilic leukemia cell (RBL-2H3) according to the Kawasaki's method. After the cell (1×10^5 cells/well) was cultured in RPMI 1640 medium supplemented with 2% FBS (fetal bovine serum) and rat anti-DNP (dinitrophenol) IgE at 37° C. for 120 min, the cell was washed with the HPEPS buffer to remove the residual IgE. The cells was incubated in either absence (negative control) or presence (test group) of the com[…]. for 10 min. The cell was then treated with DNP-BSA (Dinitrophenol-conjugated Bovine serum albumin), as a histamine release antigen, for 1 hour at 37° C. After the reaction was stopped by adding the HEPES buffer solution, the supernatant was collected and treated with 20 μl of the perchloric acid and centrifuged. The histamine release in the supernatant was measured using the HPLC. The % inhibitions on histamine release of test group were calculated by following Equation compared with negative control. […] H: histamine release of test group H0: histamine release of negative control

[4] = test system: NB1RGB cells (normal human fibroblast cell line from skin); details: concentration that reaches 50% of apoptosis, 1 hour incubation
Method: (§1) The cytotoxicity of the compositions to the normal skin cell was assessed using the NHEK (F) cells (normal human epidermal keratinocytes of neonatal foreskin cell) and the NB1RGB cells (normal human fibroblast cell line from skin). NHEK (F) and NB1RGB cells, which are main components of the epidermis and Bemis in normal human skin, produce collagen and elastin and provide skin elasticity.
(§2) The mixture of PMS/WST-1 (1-methoxy-5-methylphenazinium methyl sulfate/2-(4-indophenyl)-3-(4-nitrophenyl)-5-(2,4-disulfo phenyl)-2H-tetrazolium monosodium salt) was added to the medium and incubated for 1 hour to generate soluble formosan, and then the absorbance was measured at 415 nm using spectrophotometer. The cells treated with solvent without the compositions were used as a negative control, whereas the cells treated with 1% (w/v) SDS solution were used as a positive control (100% cell apoptosis).
(§3) apoptosis(%)=(A0−A/A0−As)×100 [Equation]
(§4) A0=absorbance of the cell that was not treated with the composition
(§5) A=absorbance of the cell that was treated with the composition […]
(§6) As=absorbance of the cell that was treated with 1% (w/v) SDS (positive control group)

[5] = test system: NHEK (F) cells (normal human epidermal keratinocytes of neonatal foreskin cell); details: concentration that reaches 50% of apoptosis, 1 hour incubation
Method: as §1, §2, §3, §4, §5, §6

[6] = test system: TG (triacyl glycerol) synthesis; assay: Inhibition of TG synthesis in hamster auricles; assay type: in vivo; details: for Relative TG concentration in the skin cell (%) / Relative TG concentration in the skin surface (%): hamster auricles, 200 μl of 10% solution topically once a day for 14 days, control group = 100
Method: The prevention and treatment effects of the compositions on the acne were assessed through the inhibition of TG (triacyl glycerol) synthesis and sebocyte proliferation in hamster model.
The inhibitory effects of the composition 6 and 14 on TG synthesis were assessed as compared with catechin (positive control group). 5 week-old male hamster was divided into three groups (negative control group, test group, positive control group) and housed 10 animals to a cage after the acclimatization for 2 weeks. Animal rooms were maintained at 25±1° C. and 55% of humidity with a 12-hr light/dark cycle. The animals were freely accessed to diet and water throughout the study. The auricles of hamster were topically treated once a day for 14 days with 200 μl of 10% of the composition 6, 14 or catechin. The solvent for topical application was composed of a mixture of ethanol and glycerol (95:5, v/v). The animals in negative control group were treated with the same volume of vehicle. The auricles were separated from the body and the sebum generated on the skin surface was extracted with acetone. The amount of TG in skin surface was calculated from the sebum extracts. Sebocyte were suspended into solution from the auricle tissues using sonicator, and then amount of intercellar TG was determined by automatic thin-layer chromatography using triolate as a standard. The relative TG concentrations of each sample were calculated from comparison with negative control.

[7] = test system: Hamster sebocyte; assay: Suppression of sebocyte proliferation ([3H] thymidine); assay type: cell-based; details: for % of untreated cell / cell number (×10^3 d.p.m/well): 12 days; for cell number (×10^3 d.p.m/well): control 2.90 ± 0.20
Method: Hamster sebocyte were established from sebaceous glands of auricles of the 5 week-old hamsters according to Sato's method. Sebocytes (2.35×10^4 cells/plate) were cultured in DMEM/F12 medium supplemented with 2% FBS and 2% human serum for 24 hours. The cells were treated with the composition 6 and 14 in different concentrations one time per 3 days for 12 days. The [^3H] thymidine (1 kBq/well) (Amersham Bioscience) was added 3 hours before the final treatment. The amount of [^3H] thymidine combined with DNA was measured by using liquid scintillation counter. The cell proliferation activity was determined as compared with negative control.

[8] = test system: pro-inflammatory cytokines (IL-1α, IL-1β, IL-6, IL-8, and TNF-α); assay: Suppression of inflammatory gene expression induced by UV exposure in NHEK cells; assay type: cell-based, human; details: 50 μg/ml, UVB 40 mJ, compared with positive control (UVB only), FIG. 3
Method: The anti-inflammation effects of the compositions were investigated by measuring the UVB-induced generation of pro-inflammatory cytokines (IL-1α, IL-1β, IL-6, IL-8, and TNF-α) in the epidermis.
The normal human epidermal keratinocytes (NHEK cell line) were incubated in the keratinocyte-SFM medium (serum-free medium) at 95% humidity in 5% carbon dioxide at 37° C. The cells were placed (3×10^4 cells/wall) into the 96-well plate and allowed to adhere 24 hours. The cells were treated with the composition 6, 16 or green tea extract in the concentration of 50 μg/ml. DMSO (dimethyl sulfoxide) was used as a solvent and the final concentration of DMSO was 0.1% (v/v). After incubation for 24 hours, the cells were was irradiated with UVB (40 mJ/cd). The cultured supernatants were collected 24 hour after UVB irradiation. The concentrations of pro-inflammatory cytokines (IL-1β, IL-6, IL-8, and TNF-α) were deteHnined from Human Inflammation Cytometric Bead Assay kit (Becton Deckinson, San Diego, USA). The concentration of IL-1α was measured using the enzyme immunoassay. The results are described in FIG. 2. The negative control indicates the cells which were neither irradiated nor treated with the compositions, and the positive control means the cells which were only irradiated with UVB without treatment of the compositions.

[9] = sample concentration 10 (unit not given)
[10] = sample concentration 20 (unit not given)
[11] = sample concentration 40 (unit not given)

Compound | Inhibitory effect on melanin synthesis (%) [1] [%] | Inhibition of Elastase (%) [2] [%] | % Inhibition on histamine release [3] [%] | LD50 (μM) NB1RGB cell [4] [µM] | LD50 (μM) NHEK (F) cell [5] [µM] | also measured
O=C1O[C@H]([C@@H](O)CO)C(O)=C1O [ascorbic acid, reference compound] | – | – | – | – | – | inhibition at 50 µg/mL [1]: 65.3%
Oc1cc(O)cc(Oc2c(O)cc(O)c3c2Oc2c(O)cc(O)cc2O3)c1 [composition 1] | 84.3 | 87.4 | 60.4 | 110.4 | 56.4 | –
Oc1cc(O)cc(Oc2c(O)cc(O)c3c2Oc2c(O)cc(Oc4c(O)cc(Oc5c(O)cc(O)c6c5Oc5c(O)cc(O)cc5O6)cc4O)cc2O3)c1 [composition 2] | 82.0 | 86.4 | 70.3 | 150.3 | 48.9 | –
Oc1cc(O)cc(Oc2c(O)cc(O)c3c2Oc2c(O)cc4oc5c(Oc6cc(O)cc(O)c6)c(O)cc(O)c5c4c2O3)c1 [composition 4] | 82.3 | 85.4 | 80.3 | – | – | –
Oc1cc(O)cc(Oc2c(O)cc(O)c3c2Oc2c(O)cc(O)c(-c4c(O)cc(O)c5c4Oc4c(O)cc(O)c(Oc6cc(O)cc(O)c6)c4O5)c2O3)c1 [composition 5] | 83.5 | 90.4 | 77.4 | – | 100.4 | –
Oc1cc(O)cc(Oc2c(O)cc(O)c3c2Oc2c(cc(O)c(-c4c(O)cc5c(c4O)Oc4c(Oc6cc(O)cc(O)c6)c(O)cc(O)c4O5)c2O)O3)c1 [composition 6] | 89.8 | 89.9 | 75.9 | 97.3 | 105.4 | sebum production on skin surface and in the skin cell ([6]; compared with negative control): significantly decrease sebum production; Relative TG concentration in the skin cell (%) [6]: 54.9%; Relative TG concentration in the skin surface (%) [6]: 66.2%; sebocyte proliferation ([7]; Table 9, in words): significantly suppressed sebocyte proliferation; % of untreated cell [7, 9]: 78.4%; cell number (×10^3 d.p.m/well) [7, 9]: 2.26 ± 0.67 ×10^3 d.p.m/well; % of untreated cell [7, 10]: 30.2%; cell number (×10^3 d.p.m/well) [7, 10]: 0.87 ± 0.07 ×10^3 d.p.m/well; % of untreated cell [7, 11]: 10.4%; cell number (×10^3 d.p.m/well) [7, 11]: 0.30 ± 0.05 ×10^3 d.p.m/well; levels of pro-inflammatory cytokines [8]: significantly decrease levels of pro-inflammatory cytokines
Oc1cc(O)cc(Oc2c(O)cc(O)c3c2Oc2c(O)cc4oc5cc(O)cc(O)c5c4c2O3)c1 [composition 7] | 80.5 | 88.7 | 70.8 | 100.4 | 78.9 | –
Oc1cc(O)cc(Oc2cc(O)c3c(c2)Oc2c(O)cc(O)c(Oc4cc(O)cc(O)c4)c2O3)c1 [composition 8] | 87.6 | 87.7 | 62.9 | 104.8 | 93.2 | –
Oc1cc(O)cc(Oc2c(Oc3c(O)cc(O)cc3O)cc(O)c3c2Oc2c(O)cc(O)cc2O3)c1 [composition 9] | 84.3 | 82.7 | 72.1 | 114.3 | 57.2 | –
Oc1cc(O)cc(Oc2c(O)cc(O)c3c2Oc2c(O)cc(O)c(-c4c(O)cc(O)c5c4Oc4c(O)cc(Oc6c(O)cc(O)cc6O)c(Oc6cc(O)cc(O)c6)c4O5)c2O3)c1 [composition 10] | 92.1 | 88.1 | 83.2 | – | 48.2 | –
O=c1c(-c2ccccc2)coc2ccccc12 [isoflavone, reference compound] | – | 38.3 | – | – | – | inhibition at 50 µg/mL [1]: 64.3%
O=c1cc(CO)occ1O [kojic acid, reference compound] | – | – | – | – | – | inhibition at 50 µg/mL [1]: 60.3%
Oc1ccc(/C=C/c2cc(O)cc(O)c2)cc1 [rasveratrole, reference compound] | 40.9 | 48.3 | – | – | – | –
catechin [reference compound] | 50.4 | 50.4 | – | – | – | Relative TG concentration in the skin cell (%) [6]: 110.4%; Relative TG concentration in the skin surface (%) [6]: 108.2%
